# Activity calls are given as the source filed them. The rule behind the calls is not given here. Where a SMILES comes first, the peptide text is derived from it.
# Experiments:
# [1] = system: Acinetobacter baumannii; assay: Antibacterial activity against Acinetobacter baumannii ATCC 19606 after 24 hrs in Mueller-Hinton broth medium; type: functional; details: ATCC 19606, 24 h
# [2] = system: Escherichia coli; assay: Antibacterial activity against Escherichia coli ATCC 25922 after 24 hrs in Mueller-Hinton broth medium; type: functional; details: ATCC 25922, 24 h
# [3] = Toxicity in human erythrocytes assessed as hemolysis at 100 ug/ml; type: cell-based, Erythrocyte; details: read-out: Activity
# [4] = system: Bordetella bronchiseptica; assay: Antibacterial activity against Bordetella bronchiseptica CUN 11844-99 after 24 hrs in Mueller-Hinton broth medium; type: functional
# [5] = system: HeLa; assay: Cytotoxicity against human HeLa cells at 100 ug/ml after 24 hrs by MTT assay relative to control; type: functional
# [6] = system: Staphylococcus aureus; assay: Antibacterial activity against methicillin-resistant Staphylococcus aureus ATCC 43300 after 24 hrs in Mueller-Hinton broth medium; type: functional; details: ATCC 43300, 24 h
# [7] = system: Brucella abortus; assay: Antibacterial activity against Brucella abortus 9.49 (per-) after 48 hrs in Mueller-Hinton broth medium; type: functional
# [8] = system: Escherichia coli; assay: Antibacterial activity against Escherichia coli K12 ATCC 23716 after 24 hrs in Mueller-Hinton broth medium; type: functional; details: K12, 24 h
# [9] = system: Escherichia coli; assay: Antibacterial activity against Escherichia coli K12 ATCC 23716 in 10% Luria-Bertani medium/90% Hepes buffer at pH 7.0; type: functional
# [10] = system: Pseudomonas aeruginosa; assay: Antibacterial activity against Pseudomonas aeruginosa CUN 4158-02 after 24 hrs in Mueller-Hinton broth medium; type: functional
# [11] = system: Brucella abortus; assay: Antibacterial activity against Brucella abortus 9.19 (per-) after 24 hrs in Mueller-Hinton broth medium; type: functional
# [12] = system: HeLa; assay: Cytotoxicity against human HeLa cells at 100 ug/ml after 24 hrs by neutral red uptake assay relative to control; type: functional
# [13] = Toxicity in human erythrocytes assessed as hemolysis; type: cell-based; details: erythrocyte
Structure (SMILES),MBC [1],MIC [1],MBC [2],MIC [2],hemolysis at 100 ug/ml [3],MBC [4],MIC [4],Activity [5],MBC [6],MIC [6],MIC [7],MBC [8],MIC [8],MBC [9],MIC [9],MBC [10],MIC [10],MBC [11],Activity [12],Activity [13]
CC[C@H](C)[C@H](NC(=O)[C@H](CCCCN)NC(=O)[C@H](CCCCN)NC(=O)[C@H](CO)NC(=O)[C@@H](NC(=O)[C@@H](N)CCCCN)[C@@H](C)CC)C(=O)N[C@@H](CCSC)C(=O)N[C@@H](CCCNC(=N)N)C(=O)N[C@H](C(=O)N[C@@H](Cc1ccccc1)C(=O)N[C@@H](CC(C)C)C(=O)N[C@@H](CCCNC(=N)N)C(=O)N[C@@H](CCCNC(=N)N)C(N)=O)[C@@H](C)O (H-KISKKIMRTFLRR-NH2),256 µg/mL,256 µg/mL,128 µg/mL,64 µg/mL,< 5%,32 µg/mL,16 µg/mL,6.4%,> 256 µg/mL,> 256 µg/mL,16 µg/mL,16 µg/mL,16 µg/mL,12.5 µg/mL,12.5 µg/mL,256 µg/mL,256 µg/mL,> 256 µg/mL,18.5%,–
CC[C@H](C)[C@H](NC(=O)[C@H](CCCNC(=N)N)NC(=O)[C@H](CCCNC(=N)N)NC(=O)[C@H](CC(C)C)NC(=O)[C@H](Cc1ccccc1)NC(=O)[C@@H](NC(=O)[C@H](CCCNC(=N)N)NC(=O)[C@H](CCSC)NC(=O)[C@@H](NC(=O)[C@H](CCCCN)NC(=O)[C@H](CCCCN)NC(=O)[C@H](CO)NC(=O)[C@@H](NC(=O)CNC(=O)[C@H](CCCNC(=N)N)NC(=O)[C@H](CC(C)C)NC(=O)[C@@H](NC(=O)[C@@H](N)CCCCN)[C@@H](C)CC)C(C)C)[C@@H](C)CC)[C@@H](C)O)C(=O)N[C@@H](CO)C(=O)N[C@@H](CCCCN)C(=O)N[C@@H](CC(=O)O)C(=O)N[C@H](C(=O)N[C@@H](CC(C)C)C(=O)N[C@H](C(=O)NCC(=O)N[C@@H](CCCCN)C(=O)N[C@@H](CCCCN)C(=O)O)[C@@H](C)O)[C@@H](C)CC (H-KILRGVSKKIMRTFLRRISKDILTGKK-OH),–,–,–,–,< 5%,–,–,6.5%,–,–,–,–,–,8 µg/mL,8 µg/mL,–,–,–,6.9%,–
CC[C@H](C)[C@H](NC(=O)[C@H](CCCCN)NC(=O)[C@H](CCCCN)NC(=O)[C@H](CO)NC(=O)[C@@H](NC(=O)[C@@H](N)CCCCN)[C@@H](C)CC)C(=O)N[C@@H](CCSC)C(=O)N[C@@H](CCCNC(=N)N)C(=O)N[C@H](C(=O)N[C@@H](Cc1ccccc1)C(=O)N[C@@H](CC(C)C)C(=O)N[C@@H](CCCNC(=N)N)C(=O)N[C@@H](CCCNC(=N)N)C(=O)N[C@H](C(=O)N[C@@H](CC(C)C)C(=O)N[C@H](C(=O)NCC(=O)N[C@@H](CCCCN)C(=O)N[C@@H](CCCCN)C(N)=O)[C@@H](C)O)[C@@H](C)CC)[C@@H](C)O (H-KISKKIMRTFLRRILTGKK-NH2),4 µg/mL,4 µg/mL,16 µg/mL,16 µg/mL,–,128 µg/mL,128 µg/mL,21.1%,256 µg/mL,256 µg/mL,2 µg/mL,8 µg/mL,8 µg/mL,50 µg/mL,25 µg/mL,8 µg/mL,8 µg/mL,32 µg/mL,56.4%,–
CC[C@H](C)[C@H](NC(=O)[C@H](CCCNC(=N)N)NC(=O)[C@H](CCCNC(=N)N)NC(=O)[C@H](CO)NC(=O)[C@@H](NC(=O)CNC(=O)[C@H](CCCNC(=N)N)NC(=O)[C@H](CC(C)C)NC(=O)[C@@H](NC(=O)[C@@H](N)CCCNC(=N)N)[C@@H](C)CC)C(C)C)C(=O)N[C@@H](CCSC)C(=O)N[C@@H](CCCNC(=N)N)C(=O)N[C@@H](CCCNC(=N)N)C(=O)N[C@H](C(=O)N[C@@H](CC(C)C)C(=O)N[C@H](C(=O)NCC(=O)N[C@@H](CCCNC(=N)N)C(=O)N[C@@H](CCCNC(=N)N)C(N)=O)[C@@H](C)O)[C@@H](C)CC [RILRGVSRRIM RR ILTGRR] (H-RILRGVSRRIMRRILTGRR-NH2),8 µg/mL,8 µg/mL,16 µg/mL,16 µg/mL,–,4 µg/mL,4 µg/mL,6.6%,32 µg/mL,32 µg/mL,8 µg/mL,16 µg/mL,16 µg/mL,16 µg/mL,16 µg/mL,128 µg/mL,32 µg/mL,32 µg/mL,13.5%,–
CC[C@H](C)[C@H](NC(=O)[C@H](CCCCN)NC(=O)[C@H](CCCCN)NC(=O)[C@H](CO)NC(=O)[C@@H](NC(=O)CNC(=O)[C@H](CCCNC(=N)N)NC(=O)[C@H](CC(C)C)NC(=O)[C@@H](NC(=O)[C@@H](N)CCCCN)[C@@H](C)CC)C(C)C)C(=O)N[C@@H](CCSC)C(=O)N[C@@H](CCCNC(=N)N)C(=O)N[C@H](C(=O)N[C@@H](Cc1ccccc1)C(=O)N[C@@H](CC(C)C)C(=O)N[C@@H](CCCNC(=N)N)C(=O)N[C@@H](CCCNC(=N)N)C(=O)N[C@H](C(=O)N[C@@H](CC(C)C)C(=O)N[C@H](C(=O)NCC(=O)N[C@@H](CCCCN)C(=O)N[C@@H](CCCCN)C(N)=O)[C@@H](C)O)[C@@H](C)CC)[C@@H](C)O (H-KILRGVSKKIMRTFLRRILTGKK-NH2),4 µg/mL,4 µg/mL,4 µg/mL,4 µg/mL,–,2 µg/mL,2 µg/mL,inactive,256 µg/mL,64 µg/mL,4 µg/mL,8 µg/mL,8 µg/mL,25 µg/mL,19 µg/mL,4 µg/mL,4 µg/mL,4 µg/mL,–,Toxic
CC[C@H](C)[C@H](NC(=O)[C@H](CCCNC(=N)N)NC(=O)[C@H](CCCNC(=N)N)NC(=O)[C@H](CC(C)C)NC(=O)[C@H](Cc1ccccc1)NC(=O)[C@@H](NC(=O)[C@H](CCCNC(=N)N)NC(=O)[C@H](CCSC)NC(=O)[C@@H](NC(=O)[C@H](CCCCN)NC(=O)[C@H](CCCCN)NC(=O)[C@H](CO)NC(=O)[C@@H](NC(=O)CNC(=O)[C@H](CCCNC(=N)N)NC(=O)[C@H](CC(C)C)NC(=O)[C@@H](NC(=O)[C@@H](N)CCCCN)[C@@H](C)CC)C(C)C)[C@@H](C)CC)[C@@H](C)O)C(=O)N[C@@H](CO)C(=O)N[C@@H](CCCCN)C(=O)N[C@@H](CC(=O)O)C(=O)N[C@H](C(=O)N[C@@H](CC(C)C)C(=O)N[C@H](C(=O)NCC(=O)N[C@@H](CCCCN)C(=O)N[C@@H](CCCCN)C(N)=O)[C@@H](C)O)[C@@H](C)CC (H-KILRGVSKKIMRTFLRRISKDILTGKK-NH2),2 µg/mL,2 µg/mL,4 µg/mL,4 µg/mL,–,4 µg/mL,4 µg/mL,38.4%,128 µg/mL,128 µg/mL,2 µg/mL,2 µg/mL,2 µg/mL,16 µg/mL,8 µg/mL,4 µg/mL,4 µg/mL,4 µg/mL,24.8%,Toxic
CC[C@H](C)[C@H](NC(=O)CN)C(=O)NCC(=O)N[C@@H](C)C(=O)N[C@H](C(=O)N[C@@H](CC(C)C)C(=O)N[C@@H](CCCCN)C(=O)N[C@H](C(=O)N[C@@H](CC(C)C)C(=O)N[C@H](C(=O)N[C@H](C(=O)NCC(=O)N[C@@H](CC(C)C)C(=O)N1CCC[C@H]1C(=O)N[C@@H](C)C(=O)N[C@@H](CC(C)C)C(=O)N[C@H](C(=O)N[C@@H](CO)C(=O)N[C@@H](Cc1c[nH]c2ccccc12)C(=O)N[C@H](C(=O)N[C@@H](CCCCN)C(=O)N[C@@H](CCCNC(=N)N)C(=O)N[C@@H](CCCCN)C(=O)N[C@@H](CCCNC(=N)N)C(=O)N[C@@H](CCC(N)=O)C(=O)N[C@@H](CCC(N)=O)C(N)=O)[C@@H](C)CC)[C@@H](C)CC)[C@@H](C)O)[C@@H](C)O)C(C)C)C(C)C [MELITTIN],2 µg/mL,2 µg/mL,4 µg/mL,–,–,4 µg/mL,4 µg/mL,90.1%,2 µg/mL,–,4 µg/mL,4 µg/mL,–,12.5 µg/mL,–,16 µg/mL,–,4 µg/mL,86%,–
CC[C@H](C)[C@H](NC(=O)[C@H](CCCCN)NC(=O)[C@H](CCCCN)NC(=O)[C@H](CO)NC(=O)[C@@H](NC(=O)CNC(=O)[C@H](CC(C)C)NC(=O)[C@@H](NC(=O)[C@@H](N)CCCCN)[C@@H](C)CC)C(C)C)C(=O)N[C@@H](CCSC)C(=O)N[C@@H](CCCNC(=N)N)C(=O)N[C@@H](CCCNC(=N)N)C(=O)N[C@H](C(=O)N[C@@H](CO)C(=O)N[C@@H](CCCCN)C(=O)N[C@@H](CC(=O)O)C(=O)N[C@H](C(=O)N[C@@H](CC(C)C)C(=O)N[C@H](C(=O)NCC(=O)N[C@@H](CCCCN)C(=O)N[C@@H](CCCCN)C(N)=O)[C@@H](C)O)[C@@H](C)CC)[C@@H](C)CC (H-KILGVSKKIMRRISKDILTGKK-NH2),16 µg/mL,16 µg/mL,32 µg/mL,32 µg/mL,< 5%,2 µg/mL,2 µg/mL,inactive,> 256 µg/mL,> 256 µg/mL,16 µg/mL,16 µg/mL,16 µg/mL,12.5 µg/mL,6.25 µg/mL,64 µg/mL,32 µg/mL,> 256 µg/mL,–,–

# Reference: ChEMBL document CHEMBL1156451 (J Biol Chem, 2007)
